Results taken from patent publication US9347089B2, “Therapeutic and diagnostic strategies” (Children's Medical Center Corporation, priority 2008, dated 2016).

Assays:
[1] = test system: H2AX mRNA; assay: H2AX mRNA level by qRT-PCR; format: cell-based, human
Protocol: (§1) HepG2 cells were grown in DMEM supplemented with 10% FCS. HL60 and K562 cells were grown in RPMI-1640 supplemented with 10% FCS. K562 cells (0.5×10^6 cells/ml) were treated with TPA (16 nM, 2 d) or Hemin (100 μM, 4 d) for differentiation into megakaryocytes or erythrocytes, respectively. To induce macrophage or granulocyte differentiation, HL60 cells (0.5×10^6 cells/ml) were treated with TPA (16 nM, 2 d) or DMSO (1.25%, 5 d), respectively. We isolated human polymorphonuclear neutrophils (PMN) from whole blood after removing mononuclear cells and platelets by Ficoll-Hypaque density gradient centrifugation. Erythrocytes were lysed by treatment with ice-cold isotonic lysis buffer (0.155 M NH4Cl, pH 7.4). The remaining PMN cells were washed with Hanks' balanced salt solution and suspended in RPMI medium containing 10% (v/v) FCS. We isolated human macrophages from peripheral blood as described in Song et al. 2003.
(§2) Total RNA was isolated using Trizol (Invitrogen) and reverse transcribed using random hexamers and superscript II reverse transcriptase (Invitrogen). qRT-PCR was performed in triplicate samples using the SYBR Green master mix (Applied Biosystems) and the BioRad iCycler. Primers are provided in Supplemental Table 1. Results were normalized to GAPDH. miRNA quantitative PCR was done in triplicate using the TaqMan MicroRNA Assay from Applied Biosystems as per the manufacturer's instructions and normalized to U6 SnRNA.
(§3) HepG2 cells (2.5×10^5/well) were reverse transfected with 30 nM miRNA […] (cel-miR-67) mimics (Dharmacon) using NeoFx (Ambion) following the manufacturer's instructions. K562 cells were transfected with miRNA or control mimics (100 nM) using Amaxa nucleofection following the manufacturer's protocol. K562 cells were treated with TPA (16 nM, 2 d) and were transfected with 100 nM miR-24 ASO using lipofectamine 2000 (Invitrogen) and 36 h later these cells were exposed to indicated concentrations of bleomycin and cell viability was assessed 2 d later.

[2] = test system: miR-24; assay: miR-24 level by qRT-PCR relative to U6; format: cell-based, human
Protocol: as §1, §2, §3

[3] = test system: H2AX; assay: H2AX protein level by immunoblot (densitometry relative to H3); format: cell-based, human
[4] = test system: K562 cells; assay: Cell proliferation by thymidine uptake; format: cell-based, human; conditions: TPA-treated K562 cells, by 12 h
[5] = test system: K562 cells; assay: Cell viability assay after genotoxic drug, K562; format: cell-based, human; conditions: for Sensitivity to DNA damage (viability after bleomycin): viability 2 d later
Protocol: as §3
(§4) microRNA-transfected K562 or HepG2 cells were seeded (2×10^3 cells/100 μl) into octuplicate microtiter wells, incubated overnight, and then treated with indicated reagents or medium for 48 h. Viability was measured by CyQuant Cell Proliferation Assay Kit as per manufacturer's instructions (Molecular Probes). Results were expressed as OD520 relative to that of untreated cells.

[6] = test system: K562 cells; assay: Chromosome breakage analysis after γ-irradiation; format: cell-based, human; conditions: for Chromosome breaks and fragments versus control cells: 24 hr after 0.75 Gy γ-irradiation
Protocol: K562 and HepG2 cultures were exposed in duplicate wells to indicated doses of γ-irradiation and incubated at 37° C. for indicated times in 5% CO2. Cells were harvested and processed for chromosomal analysis following standard methods (S1). 50-75 Wright-stained metaphases for each condition were scored for chromosomal aberrations.

[7] = test system: CHEK1; assay: CHEK1 protein level by immunoblot; format: cell-based, human; conditions: K562 cells
Protocol: K562 cells (1×10^6) were transfected with miR-24 mimics or control miRNA mimics (cel-miR-67) as above and 48 h later whole cell lysates were prepared using RIPA buffer (150 mM NaCl, 1% NP-40, 0.5% sodium deoxycholate, 0.1% SDS, 50 mM Tris, pH 8.0). Protein samples were quantified using Bradford reagent (BioRad) and resolved on 10% SDS-PAGE gels and analyzed by immunoblot probed with antibodies to H2AX (Upstate Biotech), CHEK1 (cell Signaling), histone H3 (Cell Signaling), tubulin (Sigma). All antibodies were used at a dilution of 1:1000.

[8] = test system: HepG2 cells; assay: Cell cycle analysis by propidium iodide flow cytometry; format: cell-based; conditions: HepG2 cells transfected 48 hr
[9] = test system: HepG2 cells; assay: Cell viability assay after genotoxic drug, HepG2; format: cell-based
Protocol: as §3, §4

[10] = test system: K562 cells; assay: Single cell gel electrophoresis (comet) assay; format: cell-based, human
[11] = test system: UBC mRNA; assay: UBC mRNA level by qRT-PCR; format: cell-based; conditions: miR-24 over-expression in HepG2 cells
Protocol: as §2, §3

[12] = test system: 3′UTR of H2AX mRNA; assay: Luciferase reporter assay with H2AX 3′UTR / MRE reporters in HepG2 cells; format: cell-based
Protocol: HepG2 cells (2.5×10^5/well) were reverse transfected in triplicate with 30 nM miR-24 mimic, miRNA-328 mimic or control miRNA mimic. Two days later, cells were transfected using Lipofectamine 2000 (Invitrogen) with psiCHECK2 (Promega) vector (0.5 μg/well) containing the 3′UTR of H2AX cloned in the multiple cloning site of Renilla luciferase or control. After 24 hr luciferase activities were measured using the Dual Luciferase Assay System (Promega) and TopCount NXT microplate reader (Perkin Elmer) per manufacturer's instructions. Data were normalized to Firefly luciferase. To test whether H2AX mRNA is directly regulated by miR-24, we cloned the two predicted MREs in the H2AX 3′ UTR into the multiple cloning site of psiCHECK2 and also the mutant versions that disrupted base-pairing between the binding sites and miR-24. HepG2 cells were cotransfected with these plasmids and miR-24 or control mimics for 48 h using Lipofectamine 2000, before we performed the luciferase assays as described above.

Compound: C[S+](C)[O-] [DMSO]
- Decline of H2AX mRNA, primers specific for the longer transcript ([1]; HL60 cell differentiation): two-fold
- miR-24 level during differentiation ([2]; HL60 cells): increases

Compound: CCCCCCCCCCCCCC(=O)O[C@@H]1[C@@H](C)[C@@]2(O)[C@@H](C=C(CO)C[C@]3(O)C(=O)C(C)=C[C@@H]23)[C@@H]2C(C)(C)[C@]12OC(C)=O [TPA, 12-O-tetradecanoylphorbol-13-acetate]
- Drop of H2AX protein level ([3]; HL60 cells after TPA induction): 4 fold
- Drop of H2AX protein level ([3]; K562 cells after TPA induction): 14 fold
- Thymidine incorporation [4]: no thymidine incorporation
- Sensitivity to DNA damage (viability after bleomycin) [5]: significantly hypersensitive
- Decline of H2AX mRNA, primers specific for the longer transcript ([1]; HL60 cell differentiation): two-fold
- Decline of H2AX mRNA, primers specific for the longer transcript ([1]; K562 cell differentiation): two-fold
- Chromosome breaks and fragments versus control cells [6]: significantly more sensitive
- miR-24 level during differentiation ([2]; HL60 cells): increases
- miR-24 level during differentiation ([2]; K562 cells): increases

Compound: hemin
- Decline of H2AX mRNA, primers specific for the longer transcript ([1]; K562 cell differentiation): two-fold
- miR-24 level during differentiation ([2]; K562 cells): increases

Compound: miR-24: microRNA miR-24 (SEQ ID NO: 1), transfected as synthetic mimic (Dharmacon) for over-expression (UGGCUCAGUUCAGCAGGAACAG; synthetic mimic, further chemistry not given here)
- H2AX protein ([3]; K562 cells transfected with mimic): reduces H2AX comparably to TPA differentiation
- Reduction of H2AX protein expression ([3]; miRNA over-expression in HepG2 cells, 48 hr): −8 fold
- CHEK1 protein [7]: decrease
- G1 compartment [8]: increases
- Effect on survival with miR-24-insensitive H2AX over-expression ([9]; HepG2 cells): fully rescued
- Cytotoxicity of bleomycin ([9]; mimic-transfected HepG2 cells): significantly enhanced cytotoxicity
- Cytotoxicity of cisplatin ([9]; mimic-transfected HepG2 cells): significantly enhanced cytotoxicity
- Comet tails compared to control miRNA-transfected cells ([10]; K562 cells after bleomycin treatment): 5 fold
- Comet moment after bleomycin with H2AX rescue ([10]; K562 cells co-transfected with H2AX expression plasmid lacking 3′UTR, versus miRNA control and vector): no significant increase
- Basal comet moment ([10]; K562 cells, no bleomycin): not significantly changed
- Repair of bleomycin-induced DNA damage by comet assay ([10]; TPA-treated K562 cells): significantly enhances repair
- Effect on survival with miR-24-insensitive H2AX over-expression [5]: fully rescued
- Hypersensitivity to bleomycin with miR-24-insensitive CHEK1 expression ([5]; CHEK1 cDNA lacking 3′UTR): not rescued
- Sensitivity to DNA damage (viability after bleomycin) [5]: significantly hypersensitive
- Decrease of H2AX mRNA ([1]; miRNA over-expression in HepG2 cells, 48 hr, normalized to GAPDH): 2 fold
- Chromosomal instability versus control cells ([6]; 0.38 Gy): more chromosomal instability
- Chromosome breaks versus control cells ([6]; 24 hr after 0.38 Gy): not significantly more breaks
- Chromosome breaks and fragments versus control cells [6]: twice as many
- Effect on UBC mRNA levels [11]: does not alter
- Reduction of luciferase activity ([12]; H2AX 3′UTR-containing reporter): more than 2 fold
- Effect on luciferase activity, mutated MRE reporters ([12]; MREs with mutated seed region): little effect
- Luciferase activity from control reporters ([12]; control reporter (vector)): unchanged
- Reduction of luciferase activity, wild-type miR-24 MRE reporters ([12]; either wild-type MRE inserted): approximately four-fold
